The source of these data is US20220364056A1, “SHORT-CHAIN FATTY ACID PENTANOATE AS ENHANCER FOR CELLULAR THERAPY AND ANTI-TUMOR THERAPY” (PHILIPPS-UNIVERSITÄT MARBURG, priority 2019, published 2022).

Each structure is given as a SMILES string.

Assay [1] deals with CTLs. In words: co-transfer of pentanoate-treated and control CTLs into Rag1-deficient mice. The assay is classed as in vivo. An excerpt: To investigate the capacity of SCFAs on survival and persistence of CD8^+ T cells, we mixed pentanoate-treated CTLs (CD45.2^+) with control CTLs (CD45.1^+) at 1:1 ratio and co-transferred them into Rag1-deficient mice. To better mimic the in vivo tumor microenvironment, we also adoptively co-transferred Tregs (CD45.2^+ from FIR×tiger reporter mice) that are frequently found in solid tumors. In addition, Foxp3^−CD4^+ T cells were co-transferred as the cellular source of IL-2 (FIG. 9, A and B). […] The capacity of CFSE to label proliferative cells was used for in vivo monitoring of CD8^+ T cell proliferation in Rag1-deficient mice after pretreatment with pentanoate. […] Given the importance of CD25 in supporting an effective IL-2R signalling, as well as the proliferation and survival of lymphocytes, we next asked whether pentanoate is capable of modulating CD25 expression in CTLs.
(A) experimental setup for investigating CTL persistence in vivo is shown. (B-D) The frequency (B, C) and total cell numbers (D) of transferred T cells (WT CD45.1^+ CTLs, WT CD45.2^+ pentanoate-treated CTLs and Foxp3^+CD45.2^+ Tregs from FIR×tiger mice) in Rag1-deficient mice on days 15 after the adoptive transfer are shown. The co-transferred Foxp3^−CD4^+ cells were excluded from the gate (B, C). In D, n=_3 mice/group/experiment, data from 2 pooled independent experiments are shown. […] (G and H) Frequencies and cell numbers of CD25^+ CD8^+ T cells were analysed by flow cytometry on day 15 after transfer of control CTLs (CD45.1^+) and pentanoate-treated CTLs (CD45.2^+) into Rag1-deficient mice (n=3 mice/group/experiment, data pooled from 2 independent experiments). […] The phosphorylated (p)-STAT5 levels were analysed by flow cytometry (n=5, performed in 3 independent experiments). (J) The secretion of IL-2 in pentanoate-treated CTLs cultured for indicated time points was measured by ELISA (n=4, pooled from 2 independent experiments).

For assay [2], the system named is CTLs. Kind of assay: extracellular acidification rate (ECAR) of CTLs. The assay is classed as cell-based, murine. The settings on record: 2.5 mM pentanoate, three days. On the procedure: (A and B) CTLs were cultured in medium containing 1.0% FCS and treated with pentanoate (2.5 mM) for three days. Representative histogram plots and bar graphs indicate the phoshorylated levels of mTOR (A) and S6 ribosomal protein (B), respectively (n=3 pooled from three independent experiments). (C and D) Human CTLs were cultured in medium containing 1.0% serum and treated with indicated HDACi for three days. Representative histogram plots and bar graphs indicate the phoshorylated levels of mTOR (C) and S6 ribosomal protein (D), respectively (data points represent four individual healthy donors) (E) Measurement of extracellular acidification rate (ECAR) for in vitro generated murine CTLs cultured with or without 2.5 mM pentanoate for three days. ECAR was measured under basal conditions and in response to glucose (10 mM), oligomycin (2 μM), and 2-deoxy-glucose (2-DG, 100 mM). One of three independent experiments is shown.

The subject of assay [3] is STAT5. In words: IL-2-induced phosphorylation of STAT5 in CTLs, flow cytometry. Particulars: CTLs generated with pentanoate 3 day, IL-2 50 U/ml. The assay is classed as cell-based, murine. An excerpt:
(A) experimental setup for investigating CTL persistence in vivo is shown. (B-D) The frequency (B, C) and total cell numbers (D) of transferred T cells (WT CD45.1^+ CTLs, WT CD45.2^+ pentanoate-treated CTLs and Foxp3^+CD45.2^+ Tregs from FIR×tiger mice) in Rag1-deficient mice on days 15 after the adoptive transfer are shown. The co-transferred Foxp3^−CD4^+ cells were excluded from the gate (B, C). In D, n=_3 mice/group/experiment, data from 2 pooled independent experiments are shown. (E) The CFSE label of transferred T cells (WT CD45.1 CTLs, WT CD45.2^+ pentanoate-treated CTLs and CD45.2^+CD4^+ T cells) in Rag1-deficient mice on days 4 after the adoptive transfer are shown (n=3 mice/group/experiment, data pooled from 2 independent experiments are shown). […] (G and H) Frequencies and cell numbers of CD25^+ CD8^+ T cells were analysed by flow cytometry on day 15 after transfer of control CTLs (CD45.1^+) and pentanoate-treated CTLs (CD45.2^+) into Rag1-deficient mice (n=3 mice/group/experiment, data pooled from 2 independent experiments). […] The phosphorylated (p)-STAT5 levels were analysed by flow cytometry (n=5, performed in 3 independent experiments). (J) The secretion of IL-2 in pentanoate-treated CTLs cultured for indicated time points was measured by ELISA (n=4, pooled from 2 independent experiments).

Assay [4] concerns PancOVA cells. In words: adoptive transfer of pretreated OT-I CTLs into mice bearing s.c. PancOVA tumors. The assay is classed as in vivo. An excerpt: We tested this hypothesis in two different subcutaneous (s.c.) tumor models. We injected s.c. B16OVA melanoma cells into CD45.2^+ mice and transferred either control or pentanoate-treated CD45.1^+ OT-I CTLs into recipient animals on day 5 after tumor injection. […] On day 10 after adoptive transfer of CTLs, we detected a higher number of pentanoate-treated cells expressing more effector cytokines TNF-α and IFN-γ in comparison to control OT-I CTLs in tumors, draining LNs and spleen (FIG. 2, E-G). Furthermore, the anti-tumor effects mediated by treatment of CTLs with pentanoate were tested in aggressive pancreatic tumors expressing OVA protein (OVA-expressing Panc02 cells, PancOVA). To this end, 1.5×10^6 PancOVA cells were injected s.c. into CD45.2^+ mice. […] One area of application is CAR therapy.
(A) Experimental design for the role of SCFAs in promoting anti-tumor immunity. (B-D) After three days of pre-treatment with pentanoate, CD45.1^+ OVA-specific CTLs were transferred intraperitoneally (i.p.) into CD45.2^+ mice bearing 5-days old B16OVA tumors. Tumor volume and tumor mass were analyzed (n=3 mice per group, one of three independent experiments is shown). […]
Tumor weight was determined on day 23 post tumor inoculation. […]

In assay [5] the target is HDAC2 (Homo sapiens, UniProt Q92769). In words: HDAC inhibition of the recombinant HDAC2 isoform. The assay is classed as biochemical. Particulars: supernatants; different concentrations of SCFAs. Here is the method:
(A) The production of SCFAs, branched-chain fatty acids (BCFAs) and medium-chain fatty acids (MCFAs) by 16 human commensals was measured by GC-MS. All bacteria were grown in vitro until stationary growth phase before the measurement of fatty acids in supernatants. (B and C) HDAC inhibition of recombinant class I and class II HDAC isoforms by cell-free supernatants derived from 16 members of human commensal community. Significance was tested against YCFA medium. (D) Impact of bacterial SCFAs, BCFAs and MSCFAs on the activity of class I and II HDAC enzymes. TSA was used as a control pan-HDAC inhibitor.

HDAC2, sequence (Q92769 whole entry, species assumed, canonical isoform): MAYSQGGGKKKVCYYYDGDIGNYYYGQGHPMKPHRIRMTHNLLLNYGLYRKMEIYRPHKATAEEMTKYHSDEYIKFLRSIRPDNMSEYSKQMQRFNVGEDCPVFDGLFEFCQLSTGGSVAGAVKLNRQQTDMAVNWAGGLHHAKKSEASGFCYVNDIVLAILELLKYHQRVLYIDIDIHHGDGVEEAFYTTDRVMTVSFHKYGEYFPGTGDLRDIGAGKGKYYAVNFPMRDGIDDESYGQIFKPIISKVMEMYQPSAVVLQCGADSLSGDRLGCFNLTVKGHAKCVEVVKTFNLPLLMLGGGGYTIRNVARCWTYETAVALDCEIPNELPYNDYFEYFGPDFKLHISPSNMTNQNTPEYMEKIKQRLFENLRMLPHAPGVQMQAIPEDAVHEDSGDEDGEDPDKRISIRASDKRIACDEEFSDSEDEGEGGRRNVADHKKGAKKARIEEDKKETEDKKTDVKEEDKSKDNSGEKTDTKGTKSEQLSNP

As to `CCCCC(=O)O` [pentanoate], the “frequencies and numbers of CD25+CD8+ T cells in iLN, mLN and spleen” value in assay [1] (day 15 after transfer, vs control CTLs) was “increased frequencies and numbers”. Further, the “in vivo proliferation of CFSE labelled CD8+ T cells” value in assay [1] (days 4 after transfer, vs control CTLs) is on record as “stronger proliferative ability”. For the same molecule, the “cell number and frequency of transferred CD8+ T lymphocytes” value in assay [1] (days 15 after transfer, without cognate antigen) was “high cell number and frequency”. For the same molecule, the “extracellular acidification rate (ECAR)” value in assay [2] is “increased”. Further, the “STAT5 activity in response to IL-2” value in assay [3] is given as “stronger STAT5 activity”. Also, the “growth of PancOVA cells in recipient animals” value in assay [4] (7.5×10^5 pentanoate-treated OT-I CD8+ T lymphocytes) is reported as “completely eliminate the growth”. The “persistence of transferred CTLs within draining LNs and spleen” value in assay [4] (day 23 after tumor inoculation) is recorded as “persistence of pentanoate-treated CTLs with high IFN-γ production”. The “inhibition of the HDAC2 isoform” value in assay [5] was “strongly inhibited”.
